This is an account of results in article PMC5705954, “Investigation of Non-Covalent Interactions of Aflatoxins (B1, B2, G1, G2, and M1) with Serum Albumin” (Toxins, 2017).

Like-named read-outs stand apart in the source and are kept apart here.

The target of data set [1] is bovine serum albumin (BSA) (Bos taurus, UniProt P02769). It counts as binding. The following applies: pH 7.4.
In data set [2] the target is porcine serum albumin (PSA) (Sus scrofa, UniProt P08835). The class given is binding. The following applies: pH 7.4.
The target of another data set is rat serum albumin (RSA) (Rattus norvegicus, UniProt P02770). It counts as binding. Particulars: pH 7.4.
Data set [3] has as its target warfarin-HSA interaction (Sudlow's Site I) (Homo sapiens, UniProt P02768). It counts as binding.
Data set [4] concerns the target T1, human serum albumin (HSA) (Homo sapiens, UniProt P02768). Kind of data set: Fluorescence quenching of HSA by aflatoxins. The class given is binding. The following applies: pH 7.4. Also on record: purchased Sigma-Aldrich. The protocol:
In order to characterize aflatoxin-HSA interactions, fluorescence quenching studies were performed. Increasing aflatoxin concentrations (0–10 μM) were added to a standard amount of HSA (2 μM) then fluorescence emission spectra of HSA were recorded (λexc = 280 nm). […] To exclude the possible involvement of the inner filter effect, fluorescence emission intensities were corrected based on the absorbance of aflatoxins (Equation (1)). […].
Fluorescence measurements were performed employing Hitachi F-4500 fluorescence spectrophotometer. UV-Vis spectra were recorded applying Specord Plus 210 (Analytic Jena AG, Jena, Germany) spectrophotometer. All measurements were carried out at 25 °C.
During fluorescence quenching experiments, emission intensities of albumin were determined in the presence of 2 μM albumin with and without aflatoxins (0–10 μM) using 280 and 334 nm as excitation and emission wavelengths, respectively. Inner filter effects of aflatoxins were eliminated applying the following equation [33]:(1) Icor=Iobs×e^(Aexc+Aem)/2 where Icor and Iobs are the corrected and observed fluorescence emission intensities, respectively; while Aexc and Aem are the absorption of aflatoxins at 280 and 334 nm, respectively.
Complex formations of aflatoxins with albumins were investigated applying the Stern-Volmer equation:(2) I0/I=1+KSV×[Q] where I and I0 denote the fluorescence intensities of albumin with and without aflatoxins, respectively. KSV (with the unit of dm^3/mol) is the Stern-Volmer quenching constant and [Q] is the molar concentration of aflatoxins.
Association constants (Ka) and number of binding sites (n) were determined by linear fitting, employing the double logarithmic Stern-Volmer equation [33]:(3) log(I0−I)/I=logKa+n×log[Q] where I and I0 denote the fluorescence intensities of albumin with and without aflatoxins, respectively; while [Q] is the molar concentration of aflatoxins.
Thereafter, binding constants of aflatoxin-albumin complexes were quantified by Hyperquad2006 program package, assuming 1:1 stoichiometry, (4) I=I0+(IHG−I0)/2⋅[H]0⋅([H]0+[G]0+1/K−([H]0+[G]0+1/K)^2−4⋅[H]0⋅[G]0) where, I0 and I denote the emission intensities of albumin at 334 nm in the absence and presence of aflatoxins, respectively; IHG is the emission intensity of pure aflatoxin-albumin complex at 334 nm (calculated by the Hyperquad2006); K denotes the binding constant (with the unit of dm^3/mol); [H]0 and [G]0 are the total concentrations of albumin and aflatoxin, respectively.

Data set [5] concerns the target T1, human serum albumin (HSA). Kind of data set: Thermodynamic studies (van't Hoff) of complex formation with HSA. It counts as binding. Also on record: purchased Sigma-Aldrich. Here is the method:
In order to investigate the temperature dependence of AFB1-HSA interaction, binding constants were determined between 25 and 40 °C. […] Using the temperature-dependence of the stability constants, the thermodynamic parameters associated to the interaction of AFB1 with HSA was also determined using the van’t Hoff equation (Equation (5)). […]. This value is within the typical range of non-covalent interactions. ΔH and ΔS values of the AFB1-HSA complex formation were −10.48 kJ mol^−1 and 55.1 JK^−1 mol^−1, respectively. Comparing these values with the parameters obtained for previously examined mycotoxin-albumin complexes, namely citrinin-HSA and zearalenone-HSA (Table 1), we can conclude that the smaller enthalpy change is associated with higher entropy gain in agreement with the enthalpy-entropy compensation. […]
Fluorolog τ3 spectrofluorometric system (Jobin-Yvon/SPEX) was applied during thermodynamic studies using 280 nm excitation wavelength. […] The binding constants were determined by the Hyperquad2006 program package (Equation (4)). The enthalpy and entropy changes of complex formation between AFB1 and HSA molecules were calculated as follows: the logarithms of binding constants (logK) at different temperatures were plotted against the reciprocal temperature according to the van’t Hoff equation. […]

Data set [6] deals with T1, human serum albumin (HSA). Set-up: purchased Sigma-Aldrich. The following applies: cited from earlier work.
For data set [7], the target named is T1, human serum albumin (HSA). Particulars: cited from earlier work.
The mark [8] stands for this setting: previously reported data ref 16.
[9] abbreviates: previously reported data ref 20.

Chain of warfarin-HSA interaction (Sudlow's Site I) (P02768 25-609 limits assumed): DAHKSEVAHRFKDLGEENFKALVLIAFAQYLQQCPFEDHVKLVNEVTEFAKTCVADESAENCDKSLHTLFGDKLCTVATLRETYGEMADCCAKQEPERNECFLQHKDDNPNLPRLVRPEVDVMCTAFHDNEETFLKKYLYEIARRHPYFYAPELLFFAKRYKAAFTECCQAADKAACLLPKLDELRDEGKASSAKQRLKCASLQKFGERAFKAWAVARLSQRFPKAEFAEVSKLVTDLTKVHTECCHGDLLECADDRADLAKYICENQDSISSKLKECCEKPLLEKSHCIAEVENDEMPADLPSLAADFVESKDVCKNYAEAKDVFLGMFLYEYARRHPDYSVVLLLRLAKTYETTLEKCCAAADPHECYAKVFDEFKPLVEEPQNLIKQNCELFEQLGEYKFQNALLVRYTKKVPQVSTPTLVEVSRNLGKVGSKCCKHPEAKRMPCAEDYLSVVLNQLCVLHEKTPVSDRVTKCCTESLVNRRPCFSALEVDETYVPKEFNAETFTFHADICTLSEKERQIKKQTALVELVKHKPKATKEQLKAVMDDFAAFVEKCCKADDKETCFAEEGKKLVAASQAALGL
T1 sequence (P02768 25-609): as the sequence (P02768 25-609 limits assumed) above
Chain of bovine serum albumin (BSA) (P02769 25-607 limits assumed): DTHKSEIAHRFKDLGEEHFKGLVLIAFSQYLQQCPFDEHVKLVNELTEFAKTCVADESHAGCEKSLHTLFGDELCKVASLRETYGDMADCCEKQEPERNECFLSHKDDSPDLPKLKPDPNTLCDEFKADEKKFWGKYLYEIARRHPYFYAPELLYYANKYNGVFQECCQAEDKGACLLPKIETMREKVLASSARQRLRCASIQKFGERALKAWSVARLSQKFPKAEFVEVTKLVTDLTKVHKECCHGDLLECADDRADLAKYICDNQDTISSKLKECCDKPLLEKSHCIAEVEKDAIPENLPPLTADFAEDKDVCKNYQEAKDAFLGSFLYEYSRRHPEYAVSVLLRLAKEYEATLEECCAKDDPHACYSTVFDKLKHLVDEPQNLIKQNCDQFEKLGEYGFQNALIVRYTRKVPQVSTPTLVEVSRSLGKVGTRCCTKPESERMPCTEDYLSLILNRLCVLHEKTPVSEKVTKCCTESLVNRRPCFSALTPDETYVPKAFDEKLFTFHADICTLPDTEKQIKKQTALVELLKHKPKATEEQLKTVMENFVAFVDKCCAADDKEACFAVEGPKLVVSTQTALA
Chain of rat serum albumin (RSA) (P02770 25-608 limits assumed): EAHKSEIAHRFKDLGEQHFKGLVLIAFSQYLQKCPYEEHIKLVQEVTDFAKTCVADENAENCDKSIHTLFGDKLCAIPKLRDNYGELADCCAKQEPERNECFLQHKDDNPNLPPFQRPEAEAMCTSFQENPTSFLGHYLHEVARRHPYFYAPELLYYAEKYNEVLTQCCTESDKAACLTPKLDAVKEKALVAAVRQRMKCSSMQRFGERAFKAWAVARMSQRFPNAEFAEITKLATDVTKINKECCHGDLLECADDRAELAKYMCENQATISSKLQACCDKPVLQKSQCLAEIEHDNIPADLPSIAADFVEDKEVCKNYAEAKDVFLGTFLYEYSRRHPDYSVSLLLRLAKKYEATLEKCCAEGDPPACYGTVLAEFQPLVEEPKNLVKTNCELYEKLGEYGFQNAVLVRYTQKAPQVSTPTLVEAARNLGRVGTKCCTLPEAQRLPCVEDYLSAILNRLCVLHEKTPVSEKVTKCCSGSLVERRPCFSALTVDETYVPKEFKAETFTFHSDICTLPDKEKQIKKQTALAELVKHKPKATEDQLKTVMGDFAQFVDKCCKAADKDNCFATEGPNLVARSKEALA
Chain of porcine serum albumin (PSA) (P08835 25-607 limits assumed): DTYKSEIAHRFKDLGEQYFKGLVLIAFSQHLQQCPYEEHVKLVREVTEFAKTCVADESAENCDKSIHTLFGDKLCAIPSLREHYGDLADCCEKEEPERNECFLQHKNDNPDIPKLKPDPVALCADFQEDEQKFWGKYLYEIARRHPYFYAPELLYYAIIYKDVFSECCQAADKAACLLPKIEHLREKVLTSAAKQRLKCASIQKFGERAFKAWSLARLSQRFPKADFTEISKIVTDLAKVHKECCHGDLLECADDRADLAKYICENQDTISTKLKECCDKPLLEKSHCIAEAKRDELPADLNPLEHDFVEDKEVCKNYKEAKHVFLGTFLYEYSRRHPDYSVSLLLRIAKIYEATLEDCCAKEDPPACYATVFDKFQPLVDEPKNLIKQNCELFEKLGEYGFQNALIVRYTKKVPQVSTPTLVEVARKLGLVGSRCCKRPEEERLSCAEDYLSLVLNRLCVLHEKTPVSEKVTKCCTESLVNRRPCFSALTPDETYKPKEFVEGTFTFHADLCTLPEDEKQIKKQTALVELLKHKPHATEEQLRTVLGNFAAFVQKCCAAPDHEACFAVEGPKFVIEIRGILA

Consider `COc1cc2c(c3oc(=O)c4c(c13)CCC4=O)[C@H]1C=CO[C@H]1O2` [AFB1, aflatoxin B1], for which, in data set [1], the “logK (binding constant)” value came out at 4.63 ± 0.01, the “logKSV (Stern-Volmer quenching constant)” value is 4.41 ± 0.06, the “logKa (association constant)” value is 4.44 ± 0.01 and the “n (number of binding sites)” value was determined as 1.006 ± 0.015. Also, in data set [2], the “logK (binding constant)” value is given as 4.62 ± 0.01, the “logKSV (Stern-Volmer quenching constant)” value is 4.45 ± 0.00, the “logKa (association constant)” value amounted to 4.52 ± 0.10 and the “n (number of binding sites)” value was found to be 1.023 ± 0.034. Also, at rat serum albumin (RSA), the “logK (binding constant)” value came to 4.91 ± 0.01, the “logKSV (Stern-Volmer quenching constant)” value is 4.82 ± 0.01, the “logKa (association constant)” value is 4.90 ± 0.11 and the “n (number of binding sites)” value is reported as 0.998 ± 0.051. Further, in data set [3], the “effect on fluorescence signal of HSA-bound warfarin at 379 nm (displacement of WAR from HSA)” value was “significant decrease of the fluorescence signal at 379 nm”. Moreover, in data set [4], the “logK (binding constant)” value came out at 4.65 ± 0.01, the “logKSV (Stern-Volmer quenching constant)” value is 4.44 ± 0.06, the “logKa (association constant)” value was 4.46 ± 0.08 and the “n (number of binding sites)” value stood at 1.005 ± 0.029. In data set [5], the “ΔG (298.16 K) of complex formation with HSA” value was -6.429 kcal/mol and the “ΔH of complex formation with HSA” value was -2.505 kcal/mol.
Consider `COc1cc2c(c3oc(=O)c4c(c13)CCC4=O)[C@@]1(O)C=CO[C@H]1O2` [AFM1, aflatoxin M1], for which the “effect on fluorescence signal of HSA-bound warfarin at 379 nm (displacement of WAR from HSA)” value in data set [3] is recorded as “considerably decreased the fluorescence intensity of WAR at 379 nm”. For the same molecule, in data set [4], the “logK (binding constant)” value was 4.52 ± 0.01, the “logKSV (Stern-Volmer quenching constant)” value came to 4.28 ± 0.01, the “logKa (association constant)” value came to 4.26 ± 0.00 and the “n (number of binding sites)” value turned out to be 1.004 ± 0.013.
For `COc1cc2c(c3oc(=O)c4c(c13)CCOC4=O)C1C=COC1O2` (stereo not shown) [AFG1, aflatoxin G1], in that order: “Very similar spectroscopic changes”, 4.58 ± 0.01, 4.33 ± 0.04, 4.43 ± 0.03 and 1.020 ± 0.019.
As for `CC1=C2C(=CO[C@H](C)[C@H]2C)C(O)=C(C(=O)O)C1=O` [citrinin], in data set [6] (setting [8]), the “ΔG (298.16 K) of complex formation with HSA” value was -7.161 kcal/mol, the “ΔH of complex formation with HSA” value is -5.772 kcal/mol and the “ΔS of complex formation with HSA” value was 20.90 JK^−1 mol^−1.
`COc1cc2c(c3oc(=O)c4c(c13)CCC4=O)[C@@H]1CCO[C@@H]1O2` [AFB2, aflatoxin B2]: the “effect on fluorescence signal of HSA-bound warfarin at 379 nm (displacement of WAR from HSA)” value in data set [3] is “considerably decreased the fluorescence intensity of WAR at 379 nm”. In data set [4], the “logK (binding constant)” value was 4.55 ± 0.01, the “logKSV (Stern-Volmer quenching constant)” value was determined as 4.21 ± 0.02, the “logKa (association constant)” value was found to be 4.40 ± 0.08 and the “n (number of binding sites)” value was 1.054 ± 0.000.
For `COc1cc2c(c3oc(=O)c4c(c13)CCOC4=O)[C@@H]1CCO[C@@H]1O2` [AFG2, aflatoxin G2], in that order: “considerably decreased the fluorescence intensity of WAR at 379 nm”, 4.34 ± 0.01, 3.96 ± 0.04, 4.04 ± 0.07 and 1.017 ± 0.025.
Take `CN(C)c1ccc(N=Nc2ccc(S(=O)(=O)[O-])cc2)cc1.[Na+]` [MO, methyl orange]: the “logK of MO-HSA complex” value in data set [7] is given as ~ 5.
Turning to `C[C@H]1CCCC(=O)CCC/C=C/c2cc(O)cc(O)c2C(=O)O1` [zearalenone], in data set [6] (setting [9]), the “ΔG (298.16 K) of complex formation with HSA” value is -6.946 kcal/mol, the “ΔH of complex formation with HSA” value is -7.192 kcal/mol and the “ΔS of complex formation with HSA” value is given as −3.50 JK^−1 mol^−1.
